Key:
[1] = Mutagenicity in Salmonella typhimurium TA98 assessed as number of revertant colonies at 1500 ug per plate incubated for 90 mins by AMES test (reference value: 22.67 +/- 0.58); assay type: toxicity, Salmonella enterica subsp. enterica serovar Typhimurium; conditions: in vivo, 1.5 h, dose 1500 µg
[2] = Mutagenicity in Salmonella typhimurium TA102 assessed as mutagenic index ratio at 150 ug per plate incubated for 90 mins in presence of S9 fraction by AMES test; assay type: toxicity, subcellular, Salmonella enterica subsp. enterica serovar Typhimurium; conditions: s9, 1.5 h, dose 150 µg
[3] = Mutagenicity in Salmonella typhimurium TA102 assessed as number of revertant colonies at 150 ug per plate incubated for 90 mins by AMES test (reference value: 110.67 +/- 20.15); assay type: toxicity, Salmonella enterica subsp. enterica serovar Typhimurium; conditions: in vivo, 1.5 h, dose 150 µg
[4] = Mutagenicity in Salmonella typhimurium TA102 assessed as number of revertant colonies at 500 ug per plate incubated for 90 mins in presence of S9 fraction by AMES test (reference value: 130.00 +/- 6.93); assay type: toxicity, subcellular, Salmonella enterica subsp. enterica serovar Typhimurium; conditions: s9, 1.5 h, dose 500 µg
[5] = Mutagenicity in Salmonella typhimurium TA100 assessed as number of revertant colonies at 1500 ug per plate incubated for 90 mins by AMES test (reference value: 88.00 +/- 2.65); assay type: toxicity, Salmonella enterica subsp. enterica serovar Typhimurium; conditions: in vivo, 1.5 h, dose 1500 µg
[6] = Mutagenicity in Salmonella typhimurium TA98 assessed as number of revertant colonies at 150 ug per plate incubated for 90 mins in presence of S9 fraction by AMES test (reference value: 21.00 +/- 1.00); assay type: toxicity, subcellular, Salmonella enterica subsp. enterica serovar Typhimurium; conditions: s9, 1.5 h, dose 150 µg
[7] = Mutagenicity in Salmonella typhimurium TA98 assessed as number of revertant colonies at 50 ug per plate incubated for 90 mins by AMES test (reference value: 22.67 +/- 0.58); assay type: toxicity, Salmonella enterica subsp. enterica serovar Typhimurium; conditions: in vivo, 1.5 h, dose 50 µg
[8] = Mutagenicity in Salmonella typhimurium TA102 assessed as number of revertant colonies at 50 ug per plate incubated for 90 mins by AMES test (reference value: 110.67 +/- 20.15); assay type: toxicity, Salmonella enterica subsp. enterica serovar Typhimurium; conditions: in vivo, 1.5 h, dose 50 µg
[9] = Mutagenicity in Salmonella typhimurium TA100 assessed as number of revertant colonies at 500 ug per plate incubated for 90 mins by AMES test (reference value: 88.00 +/- 2.65); assay type: toxicity, Salmonella enterica subsp. enterica serovar Typhimurium; conditions: in vivo, 1.5 h, dose 500 µg
[10] = Mutagenicity in Salmonella typhimurium TA102 assessed as mutagenic index ratio at 5000 ug per plate incubated for 90 mins by AMES test; assay type: toxicity, Salmonella enterica subsp. enterica serovar Typhimurium; conditions: in vivo, 1.5 h, dose 5000 µg
[11] = Mutagenicity in Salmonella typhimurium TA98 assessed as number of revertant colonies at 500 ug per plate incubated for 90 mins in presence of S9 fraction by AMES test (reference value: 21.00 +/- 1.00); assay type: toxicity, subcellular, Salmonella enterica subsp. enterica serovar Typhimurium; conditions: s9, 1.5 h, dose 500 µg
[12] = Mutagenicity in Salmonella typhimurium TA100 assessed as number of revertant colonies at 50 ug per plate incubated for 90 mins in presence of S9 fraction by AMES test (reference value: 122.67 +/- 5.03); assay type: toxicity, subcellular, Salmonella enterica subsp. enterica serovar Typhimurium; conditions: s9, 1.5 h, dose 50 µg
[13] = Mutagenicity in Salmonella typhimurium TA100 assessed as number of revertant colonies at 5000 ug per plate incubated for 90 mins in presence of S9 fraction by AMES test (reference value: 122.67 +/- 5.03); assay type: toxicity, subcellular, Salmonella enterica subsp. enterica serovar Typhimurium; conditions: s9, 1.5 h, dose 5000 µg
[14] = Mutagenicity in Salmonella typhimurium TA102 assessed as number of revertant colonies at 1500 ug per plate incubated for 90 mins by AMES test (reference value: 110.67 +/- 20.15); assay type: toxicity, Salmonella enterica subsp. enterica serovar Typhimurium; conditions: in vivo, 1.5 h, dose 1500 µg
[15] = Mutagenicity in Salmonella typhimurium TA100 assessed as mutagenic index ratio at 500 ug per plate incubated for 90 mins in presence of S9 fraction by AMES test; assay type: toxicity, subcellular, Salmonella enterica subsp. enterica serovar Typhimurium; conditions: s9, 1.5 h, dose 500 µg
[16] = Mutagenicity in Salmonella typhimurium TA100 assessed as number of revertant colonies at 150 ug per plate incubated for 90 mins in presence of S9 fraction by AMES test (reference value: 122.67 +/- 5.03); assay type: toxicity, subcellular, Salmonella enterica subsp. enterica serovar Typhimurium; conditions: s9, 1.5 h, dose 150 µg
[17] = Mutagenicity in Salmonella typhimurium TA98 assessed as mutagenic index ratio at 1500 ug per plate incubated for 90 mins by AMES test; assay type: toxicity, Salmonella enterica subsp. enterica serovar Typhimurium; conditions: in vivo, 1.5 h, dose 1500 µg
[18] = Mutagenicity in Salmonella typhimurium TA102 assessed as mutagenic index ratio at 50 ug per plate incubated for 90 mins in presence of S9 fraction by AMES test; assay type: toxicity, subcellular, Salmonella enterica subsp. enterica serovar Typhimurium; conditions: s9, 1.5 h, dose 50 µg
[19] = Mutagenicity in Salmonella typhimurium TA102 assessed as mutagenic index ratio at 500 ug per plate incubated for 90 mins by AMES test; assay type: toxicity, Salmonella enterica subsp. enterica serovar Typhimurium; conditions: in vivo, 1.5 h, dose 500 µg
[20] = Mutagenicity in Salmonella typhimurium TA98 assessed as number of revertant colonies at 5000 ug per plate incubated for 90 mins by AMES test (reference value: 22.67 +/- 0.58); assay type: toxicity, Salmonella enterica subsp. enterica serovar Typhimurium; conditions: in vivo, 1.5 h, dose 5000 µg
[21] = Mutagenicity in Salmonella typhimurium TA102 assessed as number of revertant colonies at 5000 ug per plate incubated for 90 mins by AMES test (reference value: 110.67 +/- 20.15); assay type: toxicity, Salmonella enterica subsp. enterica serovar Typhimurium; conditions: in vivo, 1.5 h, dose 5000 µg
[22] = Mutagenicity in Salmonella typhimurium TA100 assessed as mutagenic index ratio at 50 ug per plate incubated for 90 mins in presence of S9 fraction by AMES test; assay type: toxicity, subcellular, Salmonella enterica subsp. enterica serovar Typhimurium; conditions: s9, 1.5 h, dose 50 µg
[23] = Mutagenicity in Salmonella typhimurium TA100 assessed as mutagenic index ratio at 5000 ug per plate incubated for 90 mins in presence of S9 fraction by AMES test; assay type: toxicity, subcellular, Salmonella enterica subsp. enterica serovar Typhimurium; conditions: s9, 1.5 h, dose 5000 µg
[24] = Mutagenicity in Salmonella typhimurium TA98 assessed as mutagenic index ratio at 50 ug per plate incubated for 90 mins by AMES test; assay type: toxicity, Salmonella enterica subsp. enterica serovar Typhimurium; conditions: in vivo, 1.5 h, dose 50 µg
[25] = Mutagenicity in Salmonella typhimurium TA102 assessed as mutagenic index ratio at 1500 ug per plate incubated for 90 mins by AMES test; assay type: toxicity, Salmonella enterica subsp. enterica serovar Typhimurium; conditions: in vivo, 1.5 h, dose 1500 µg
[26] = Mutagenicity in Salmonella typhimurium TA100 assessed as number of revertant colonies at 500 ug per plate incubated for 90 mins in presence of S9 fraction by AMES test (reference value: 122.67 +/- 5.03); assay type: toxicity, subcellular, Salmonella enterica subsp. enterica serovar Typhimurium; conditions: s9, 1.5 h, dose 500 µg
[27] = Mutagenicity in Salmonella typhimurium TA102 assessed as number of revertant colonies at 5000 ug per plate incubated for 90 mins in presence of S9 fraction by AMES test (reference value: 130.00 +/- 6.93); assay type: toxicity, subcellular, Salmonella enterica subsp. enterica serovar Typhimurium; conditions: s9, 1.5 h, dose 5000 µg
[28] = Mutagenicity in Salmonella typhimurium TA100 assessed as mutagenic index ratio at 5000 ug per plate incubated for 90 mins by AMES test; assay type: toxicity, Salmonella enterica subsp. enterica serovar Typhimurium; conditions: in vivo, 1.5 h, dose 5000 µg
[29] = Mutagenicity in Salmonella typhimurium TA98 assessed as number of revertant colonies at 150 ug per plate incubated for 90 mins by AMES test (reference value: 22.67 +/- 0.58); assay type: toxicity, Salmonella enterica subsp. enterica serovar Typhimurium; conditions: in vivo, 1.5 h, dose 150 µg
[30] = Mutagenicity in Salmonella typhimurium TA98 assessed as mutagenic index ratio at 5000 ug per plate incubated for 90 mins by AMES test; assay type: toxicity, Salmonella enterica subsp. enterica serovar Typhimurium; conditions: in vivo, 1.5 h, dose 5000 µg
[31] = Mutagenicity in Salmonella typhimurium TA102 assessed as mutagenic index ratio at 500 ug per plate incubated for 90 mins in presence of S9 fraction by AMES test; assay type: toxicity, subcellular, Salmonella enterica subsp. enterica serovar Typhimurium; conditions: s9, 1.5 h, dose 500 µg
[32] = Mutagenicity in Salmonella typhimurium TA102 assessed as mutagenic index ratio at 1500 ug per plate incubated for 90 mins in presence of S9 fraction by AMES test; assay type: toxicity, subcellular, Salmonella enterica subsp. enterica serovar Typhimurium; conditions: s9, 1.5 h, dose 1500 µg

Structure (SMILES): O=[N+]([O-])c1ncn(Cc2cn(-c3ccc(OC(F)(F)F)cc3)nn2)n1
- Activity [1]: 20.33
- Ratio [2]: 1.3
- Activity [3]: 159.33
- Activity [4]: 190
- Activity [5]: 81
- Activity [6]: 23.33
- Activity [7]: 18.33
- Activity [8]: 215.33
- Activity [9]: 83
- Ratio [10]: 1.2
- Activity [11]: 23.33
- Activity [12]: 121.33
- Activity [13]: 47
- Activity [14]: 141
- Ratio [15]: 1
- Activity [16]: 117.33
- Ratio [17]: 0.8
- Ratio [18]: 0.2
- Ratio [19]: 1.4
- Activity [20]: 25
- Activity [21]: 143.67
- Ratio [22]: 0.9
- Ratio [23]: 0.3
- Ratio [24]: 0.8
- Ratio [25]: 1.2
- Activity [26]: 129
- Activity [27]: 131
- Ratio [28]: 0.9
- Activity [29]: 24.67
- Ratio [30]: 1.1
- Ratio [31]: 1.4
- Ratio [32]: 1.3

Source: ChEMBL document CHEMBL5528040, “Design and Synthesis of Novel 3-Nitro-1H-1,2,4-triazole-1,2,3-triazole-1,4-disubstituted Analogs as Promising Antitrypanosomatid Agents: Evaluation of In Vitro Activity against Chagas Disease and Leishmaniasis” (J Med Chem, 2024)
